Experimental data reported in US6531584B1, “2'modified oligonucleotides” (ISIS Pharmaceuticals, Inc., priority 1990, dated 2003).
Values joined by “and” are separate entries in the source; they are usually repeats but may differ in a detail not shown here. Identical values can stand only once. Strand notation (5' to 3'): a small letter for the sugar, then the base; units joined by * are phosphorothioate-linked, units joined directly phosphodiester-linked; [ ] holds rarer units or linkages, { } end groups; capitals alone tell only the bases. d = 2'-deoxy (DNA); m = 2'-O-methyl; f = 2'-fluoro

Experiments:
PKC-α mRNA = experiment: Northern blot analysis of PKC-α mRNA levels; format: cell-based, human; details: FIGS. 3 to 5
Experimental: Oligonucleotides having SEQ ID NO:4 were synthesized as uniformly phosphorothioate chimeric oligonucleotides having a centered deoxy gap of varying lengths flanked by 2′-O-methylated regions. These oligonucleotides (500 nM concentration) were tested for effects on PKC-α mRNA levels by Northern blot analysis.

ras mRNA = experiment: Northern blot analysis of ras expression in T24 cells; format: cell-based, human; set-up: inhibition of ras expression / decrease of ras mRNA: concentration or dose not given beside the values; details: T24 cells, Northern blot
Experimental: The human urinary bladder cancer cell line T24 was obtained from the American Type Culture Collection (Rockville Md.). Cells were grown in McCoy's 5A medium with L-glutamine (GIBCO-BRL, Gaithersburg, Md.), supplemented with 10% heat-inactivated fetal calf serum and 50 U/ml each of penicillin and streptomycin. Cells were seeded on 100 mm plates. When they reached 70% confluency, they were treated with oligonucleotide. Plates were washed with 10 ml prewarmed PBS and 5 ml of OptiMEM (GIBCO) reduced-serum medium containing 2.5 μl DOTMA. Oligonucleotide was then added to the desired concentration. After 4 hours of treatment, the medium was replaced with McCoy's medium. Cells were harvested 48 hours after oligonucleotide treatment and RNA was isolated using a standard CsCl purification method. [Kingston in Current Protocols in Molecular Biology, F. M. Ausubel, R. Brent, R. E. Kingston, D. D. Moore, J. A. Smith, J. G. Seidman and K. Strahl, Eds., John Wiley and Sons, New York.] The human epithelioid carcinoma cell line HeLa 229 was obtained from the American Type Culture Collection (Bethesda, Md.). HeLa cells were maintained as monolayers on 6-well plates in Dulbecco's Modified Eagle's medium (DMEM) supplemented with 10% fetal bovine serum and 100 U/ml penicillin. Treatment with oligonucleotide and isolation of RNA were essentially as described above for T24 cells.
Northern hybridization: 10 μg of each RNA was electrophoresed on a 1.2% agarose/formaldehyde gel and transferred overnight to GeneBind 45 nylon membrane (Pharmacia LKB, Piscataway, N.J.) using standard methods. [Kingston in Current Protocols in Molecular Biology, F. M. Ausubel, R. Brent, R. E. Kingston, D. D. Moore, J. A. Smith, J. G. Seidman and K. Strahl, Eds., John Wiley and Sons, New York.] RNA was UV-crosslinked to the membrane. Double-stranded ^32P-labeled probes were synthesized using the Prime a Gene labeling kit (Promega, Madison, Wis.). The ras probe was a SalI-NheI fragment of a cDNA clone of the activated (mutant) H-ras mRNA having a GGC-to-GTC mutation at codon-12. The control probe was G3PDH. Blots were prehybridized for 15 minutes at 68° C. with the QuickHyb hybridization solution (Stratagene, La Jolla, Calif.). The heat-denatured radioactive probe (2.5×10^6 counts/2 ml hybridization solution) mixed with 100 μl of 10 mg/ml salmon sperm DNA was added and the membrane was hybridized for 1 hour at 68° C. The blots were washed twice for 15 minutes at room temperature in 2×SSC/0.1% SDS and once for 30 minutes at 60° C. with 0.1×SSC/0.1%SDS. Blots were autoradiographed and the intensity of signal was quantitated using an ImageQuant PhosphorImager (Molecular Dynamics, Sunnyvale, Calif.). Northern blots were first hybridized with the ras probe, then stripped by boiling for 15 minutes in 0.1×SSC/0.1%SDS and rehybridized with the control G3PDH probe to check for correct sample loading.

[1] = system: complementary RNA strand (the sense strand); experiment: Thermal melting analysis of 2′-deoxy-2′-fluoro modified antisense oligonucleotides with complementary RNA; format: binding; details: for Tm (° C.)/ subst.: change in Tm per 2′-fluoro substitution; for Tm (° C.): second Tm column: change in Tm versus unmodified oligonucleotide
[2] = system: mutant (activated) H-ras RNA; format: cell-based, human
[3] = first G°37 column: free energy of duplex with complementary RNA
[4] = second G°37 column: change versus unmodified oligonucleotide

Substance: AoAoAoAoCoGsTsCsAsGsCsCsAsTsGoGoToCoCoC (AAAACGTCAGCCATGGTCCC; listed as DNA, chemistry not fully specified) [Oligonucleotide 7273]
- reduction of PKC-α mRNA levels (PKC-α mRNA): more active than their 2′-O-methyl counterparts

Substance: AsAoAoAoCoGsTsCsAsGsCsCsAsTsGoGoToCoCsC (AAAACGTCAGCCATGGTCCC; linkages s1 o4 s9 o4 s1 (s phosphorothioate, o phosphodiester), sugars by position and methylation of C not given here; further chemistry not fully specified) [Oligonucleotide 7008]
- reduction of PKC-α mRNA levels (PKC-α mRNA): show reduction of PKC-α mRNA

Substance: AsAoAoAoCoGsTsCsAsGsCsCsAsTsGoGoToCoCsC (AAAACGTCAGCCATGGTCCC; listed as DNA, chemistry not fully specified) [Oligonucleotide 7294]
- reduction of PKC-α mRNA levels (PKC-α mRNA): more active than their 2′-O-methyl counterparts

Substance: AsAsAsAsCsGsTsCsAsGsCsCsAsTsGsGsTsCsCsC (AAAACGTCAGCCATGGTCCC; 2'-O-methyl/deoxy P=S chimera, chemistry not fully specified) [Oligonucleotide 5352]
- reduction of PKC-α mRNA levels (PKC-α mRNA): most active

Substance: AsAsAsAsCsGsTsCsAsGsCsCsAsTsGsGsTsCsCsC (dA*dA*dA*dA*dC*dG*dT*dC*dA*dG*dC*dC*dA*dT*dG*dG*dT*dC*dC*dC) [Oligonucleotide 3522]
- reduction of PKC-α mRNA levels (PKC-α mRNA): show reduction of PKC-α mRNA

Substance: CTTATATTCCGTCATCGCTC [Oligonucleotide 2502]
- inhibition of ras expression / decrease of ras mRNA (ras mRNA; listed as 2502): 26%

Substance: CTTATATTCCGTCATCGCTC [Oligonucleotide 4998]
- inhibition of ras expression / decrease of ras mRNA (ras mRNA; listed as 4998): 84%

Substance: CGA CUAUGCAAG UAC (CGACUAUGCAAGUAC; chemistry not fully specified)
- Tm (° C.)/ subst. [1]: +1.7 °C
- G°37 [1, 3]: -16.18 ± 0.08 kcal/mol
- G°37 [1, 4]: -6.07 ± 0.09 kcal/mol
- Tm (° C.) [1]: +13.8 °C

Substance: CGACUAUGCAAG UAC (CGACUAUGCAAGUAC; chemistry not fully specified)
- Tm (° C.)/ subst. [1]: +1.8 °C
- G°37 [1, 3]: -19.85 ± 0.05 kcal/mol
- G°37 [1, 4]: -9.74 ± 0.06 kcal/mol
- Tm (° C.) [1]: +20.1 °C

Substance: C^FC^FA^F C^FA^FCd CdGdAd CdGdGd C^FG^FC^F C^FC^F [Oligonucleotide 4690]
- inhibition of ras expression / decrease of ras mRNA (ras mRNA): 82%

Substance: C^MC^MA^M C^MA^MC^M C^MG^MAd C^MG^MG^M C^MG^MC^M C^MC^M [Oligonucleotide 3975]
- inhibition of ras-luciferase activity [2]: neither of the oligonucleotides having either the one or the three 2′-deoxy-erythro-pentofuranosyl nucleotide subsequences showed significant activity

Substance: C^MC^MA^M C^MA^MC^M C^MGdAd CdG^MG^M C^MG^MC^M C^MC^M [Oligonucleotide 3979]
- inhibition of ras-luciferase activity [2]: neither of the oligonucleotides having either the one or the three 2′-deoxy-erythro-pentofuranosyl nucleotide subsequences showed significant activity

Substance: C^MC^MA^M C^MA^MC^M CdGdAd CdGdG^M C^MG^MC^M C^MC^M [Oligonucleotide 3980]
- inhibition of ras-luciferase activity [2]: next greatest inhibition
- inhibition of ras expression / decrease of ras mRNA (ras mRNA): 61%

Substance: C^MC^MA^M C^MA^MCd CdGdAd CdGdGd C^MG^MC^M C^MC^M (antisense CCACACCGACGGCGCCC; sugars from the 5' end m5 d7 m5, backbone and methylation of C not given here) [Oligonucleotide 3985, 2′-O-methyl P═S chimera, 7-deoxy gap]
- inhibition of ras-luciferase activity [2]: greatest inhibition
- inhibition of ras expression / decrease of ras mRNA (ras mRNA): 95% and 81%

Substance: C^MC^MA^M C^MAdCd CdGdAd CdGdGd CdG^MC^M C^MC^M [Oligonucleotide 3984]
- inhibition of ras expression / decrease of ras mRNA (ras mRNA): 81%

Substance: CsCsAsCoAoCoCoGoAoCoGoGoCoGsCsCsC [Oligonucleotide 4241]
- effect on ras expression [2]: completely inactive

Substance: CsCsAsCsAsCsCsGsAoCsGsGsCsGsCsCsC [Oligonucleotide 4248]
- effect on ras expression [2]: just as active as a full P═S molecule

Substance: Oligonucleotide 4689: SEQ ID NO:1, 2′-fluoro-modified nucleotides flanking a 5-deoxy gap (CCACACCGACGGCGCCC; sugars from the 5' end f6 d5 f6, all phosphorothioate, methylation of C not given here)
- inhibition of ras expression / decrease of ras mRNA (ras mRNA): 63%

Substance: TCCGTCATCGCTCCTCAGGG [Oligonucleotide 5122]
- inhibition of ras expression / decrease of ras mRNA (ras mRNA; listed as 5122): 15%

Substance: TsCsTs CsGsCs TsGsGs TsGsAs GsTsTs TsC (TCTCGCTGGTGAGTTTC; all phosphorothioate, sugars by position and methylation of C not given here) [Oligonucleotide 7082]
- reduction of PKC-α mRNA levels (PKC-α mRNA): most active in reducing PKC-α mRNA levels

Substance: TsTsCs TsCsGs CsTsGs GsTsGs AsGsTs TsTsC (TTCTCGCTGGTGAGTTTC; all phosphorothioate, sugars by position and methylation of C not given here) [Oligonucleotide 6632]
- reduction of PKC-α mRNA levels (PKC-α mRNA): most active in reducing PKC-α mRNA levels

Substance: oligonucleotide with the 2′-O-propyl diester flanking regions: SEQ ID NO:1, phosphorothioate in the 7-base deoxy gap only, phosphodiester 2′-O-propyl flanking regions (DNA CCACACCGACGGCGCCC; sugars by position and backbone not given here; 2'-O-propyl phosphodiester flanks, 7-base phosphorothioate deoxy gap)
- effect on ras expression [2]: able to inhibit ras expression
